Experimental data published in US20240287138A1, “CYCLIC PEPTIDES FOR INHIBITING TNF RECEPTOR 1 ACTIVITY” (Merck Sharp & Dohme LLC, priority 2023, published 2024).
Like-named read-outs stand apart in the source and are kept apart here. Numbered stars: 1 amine (or outer) side, 2 acyl side, 3 side chain; on linkers, the order of the positions; unused ones are H or OH. Bridge positions count the residues as written; N and C are the ends. Square brackets hold non-standard residues; d marks the D form. Peptide text beside a SMILES is read from it. * marks the point of attachment. Trp(βS-Me,7-OMe) = COc1cccc2c([C@H](C)[C@H](N)C(=O)O)c[nH]c12; Trp(1-CH2COOH) = N[C@@H](Cc1cn(CC(=O)O)c2ccccc12)C(=O)O; Trp(βS-Me) = C[C@@H](c1c[nH]c2ccccc12)[C@H](N)C(=O)O; Ala(indazol-1-yl) = N[C@@H](Cn1ncc2ccccc21)C(=O)O; Trp(7-CN) = N#Cc1cccc2c(C[C@H](N)C(=O)O)c[nH]c12; Trp(7-Cl) = N[C@@H](Cc1c[nH]c2c(Cl)cccc12)C(=O)O; Phe(3-CONH2) = NC(=O)c1cccc(C[C@H](N)C(=O)O)c1; Phe(4-CONH2) = NC(=O)c1ccc(C[C@H](N)C(=O)O)cc1; Phe(4-COOH) = N[C@@H](Cc1ccc(C(=O)O)cc1)C(=O)O; 4Pal(3S-Me) = C[C@@H](c1ccncc1)[C@H](N)C(=O)O; Trp(7-aza) = N[C@@H](Cc1c[nH]c2ncccc12)C(=O)O; X9 = CN(C)[C@@H]1C[C@H](C(=O)[*:2])N([*:1])C1; Phe(4-CH2NH2) = NCc1ccc(C[C@H](N)C(=O)O)cc1; dPro(4S-NH2) = N[C@@H]1CN[C@@H](C(=O)O)C1; Pip(5R-OH) = O=C(O)[C@@H]1CC[C@@H](O)CN1; αMeW = C[C@](N)(Cc1c[nH]c2ccccc12)C(=O)O; X1 = O=C([C@@H]1CC[C@H](N[*:1])C1)[*:2]; 2Nal = N[C@@H](Cc1ccc2ccccc2c1)C(=O)O; Pip(4-aza) = O=C(O)[C@@H]1CNCCN1; 4Pal = N[C@@H](Cc1ccncc1)C(=O)O; Abu(4-CN) = N#CCC[C@H](N)C(=O)O; Gly(cBu) = N[C@H](C(=O)O)C1CCC1; NMeE = CN[C@@H](CCC(=O)O)C(=O)O; dHyp = O=C(O)[C@H]1C[C@H](O)CN1; Cit = NC(=O)NCCC[C@H](N)C(=O)O; Ahp(2) = CCCCC[C@H](N)C(=O)O; αMeS = C[C@](N)(CO)C(=O)O; Carboxymethyl = O=C(O)C*; Nle = CCCC[C@H](N)C(=O)O; Sar = CNCC(=O)O

Target: T1, human soluble TNFR1 (sTNFR1) (Homo sapiens, UniProt P19438)
T1 construct: made in house; host or cells: Sf21 (baculovirus)
T1 sequence (P19438 with tags, fused parts or gaps): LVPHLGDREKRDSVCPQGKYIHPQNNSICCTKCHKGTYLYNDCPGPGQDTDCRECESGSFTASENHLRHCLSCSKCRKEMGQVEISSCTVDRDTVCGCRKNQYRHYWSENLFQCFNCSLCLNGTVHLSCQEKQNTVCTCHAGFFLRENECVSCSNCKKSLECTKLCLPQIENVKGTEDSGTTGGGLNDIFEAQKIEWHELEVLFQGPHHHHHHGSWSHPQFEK
Test: Human sTNFR1-peptide displacement assay (LanthaScreen Eu TR-FRET binding assay)
Summary of the method: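 Readout is the 665/615 nm TR-FRET ratio (Eu anti-His donor, streptavidin-Alexa647 acceptor), normalized to DMSO and saturating displacer, fit by Morrison-based five-parameter logistic for Kd^app. His-tagged sTNFR1 (1-211) prebound to 100 nM biotinylated peptide SEQ ID NO.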

[1] = displacement of biotinylated peptide SEQ ID NO. 1 from sTNFR1, 20 point titration, 5-parameter fit based on Morrison equation (tight binding), read-out: TR-FRET Kd^app

SMILES | Kd | Kd [1] | also measured
CCCC[C@@H]1NC(=O)[C@@H]2CC[C@@H](C2)NC(=O)[C@H]([C@@H](C)c2c[nH]c3c(OC)cccc23)NC(=O)CN(C)C(=O)[C@H](Cc2ccc(O)cc2)NC(=O)[C@H](Cc2ccc(C(N)=O)cc2)NC(=O)[C@](C)(CO)NC(=O)[C@H](Cc2c[nH]c3c(Cl)cccc23)NC(=O)[C@H](Cc2ccncc2)NC(=O)[C@H](CC(N)=O)NC(=O)[C@H](CCC(=O)O)N(C)C(=O)[C@H](Cn2ncc3ccccc32)NC(=O)[C@@H]2CC[C@@H](O)CN2C(=O)[C@H](Cc2ccncc2)NC1=O [SEQ ID NO. 74] (cyclo([4Pal][Trp(7-Cl)][αMeS][Phe(4-CONH2)]Y[Sar][Trp(βS-Me,7-OMe)][X1][Nle][4Pal][Pip(5R-OH)][Ala(indazol-1-yl)][NMeE]N)) | 80 pM | – | –
CCCCC[C@@H]1NC(=O)[C@@H]2CC[C@@H](C2)NC(=O)[C@H]([C@@H](C)c2c[nH]c3c(OC)cccc23)NC(=O)CN(C)C(=O)[C@H](Cc2ccc(C(N)=O)cc2)NC(=O)[C@H](Cc2ccc(C(N)=O)cc2)NC(=O)[C@](C)(CO)NC(=O)[C@H](Cc2c[nH]c3c(C#N)cccc23)NC(=O)[C@H](Cc2ccc(C(=O)O)cc2)NC(=O)[C@H](CC(N)=O)NC(=O)[C@H]2C[C@H](O)CN2C(=O)[C@H](Cc2c[nH]c3ccccc23)NC(=O)[C@H](CCC#N)NC(=O)[C@H]([C@@H](C)c2ccncc2)NC1=O [SEQ ID NO. 79] (cyclo([Ahp(2)][4Pal(3S-Me)][Abu(4-CN)]W[dHyp]N[Phe(4-COOH)][Trp(7-CN)][αMeS][Phe(4-CONH2)][Phe(4-CONH2)][Sar][Trp(βS-Me,7-OMe)][X1])) | 150 pM | – | –
CCCC[C@@H]1NC(=O)[C@@H]2CC[C@@H](C2)NC(=O)[C@H]([C@@H](C)c2c[nH]c3c(OC)cccc23)NC(=O)CN(C)C(=O)[C@H](Cc2ccc(C(=O)O)cc2)NC(=O)[C@H](Cc2ccc(C(N)=O)cc2)NC(=O)[C@](C)(CO)NC(=O)[C@H](Cc2c[nH]c3c(C#N)cccc23)NC(=O)[C@H](Cc2ccc(C(=O)O)cc2)NC(=O)[C@H](CC(N)=O)NC(=O)[C@H]2C[C@H](N)CN2C(=O)[C@H](Cc2cn(CC(=O)O)c3ccccc23)NC(=O)[C@@H]2CC[C@@H](O)CN2C(=O)[C@H](Cc2ccncc2)NC1=O [SEQ ID NO. 104] (cyclo([4Pal][Pip(5R-OH)][Trp(1-CH2COOH)][dPro(4S-NH2)]N[Phe(4-COOH)][Trp(7-CN)][αMeS][Phe(4-CONH2)][Phe(4-COOH)][Sar][Trp(βS-Me,7-OMe)][X1][Nle])) | – | 90 pM | –
CCCC[C@@H]1NC(=O)[C@@H]2CC[C@@H](C2)NC(=O)[C@H]([C@@H](C)c2c[nH]c3c(OC)cccc23)NC(=O)CN(C)C(=O)[C@H](Cc2ccc(C(N)=O)cc2)NC(=O)[C@H](Cc2ccc(C(N)=O)cc2)NC(=O)[C@](C)(CO)NC(=O)[C@H](Cc2c[nH]c3c(Cl)cccc23)NC(=O)[C@H](Cc2ccc(C(=O)O)cc2)NC(=O)[C@H](CC(N)=O)NC(=O)[C@H]2C[C@H](O)CN2C(=O)[C@H](Cc2c[nH]c3ccccc23)NC(=O)[C@@H]2CC[C@@H](O)CN2C(=O)[C@H](Cc2ccncc2)NC1=O [SEQ ID NO. 196] (cyclo([4Pal][Pip(5R-OH)]W[dHyp]N[Phe(4-COOH)][Trp(7-Cl)][αMeS][Phe(4-CONH2)][Phe(4-CONH2)][Sar][Trp(βS-Me,7-OMe)][X1][Nle])) | – | 90 pM | –
CCCC[C@@H]1NC(=O)CSC[C@@H](C(N)=O)NC(=O)[C@](C)(Cc2c[nH]c3ccccc23)NC(=O)CN(C)C(=O)[C@H](Cc2ccc(O)cc2)NC(=O)[C@H](Cc2ccc(C(=O)O)cc2)NC(=O)[C@](C)(CO)NC(=O)[C@H](Cc2c[nH]c3c(Cl)cccc23)NC(=O)[C@H](Cc2ccncc2)NC(=O)[C@H](CC(N)=O)NC(=O)[C@H](CCC(=O)O)N(C)C(=O)[C@H](Cc2c[nH]c3ncccc23)NC(=O)[C@H](C2CCC2)NC(=O)[C@H](Cc2ccncc2)NC1=O [SEQ ID NO. 56] ({CH2CO}-[Nle][4Pal][Gly(cBu)][Trp(7-aza)][NMeE]N[4Pal][Trp(7-Cl)][αMeS][Phe(4-COOH)]Y[Sar][αMeW]C-NH2; thioether N-14) | 2000 pM | – | –
CCCC[C@@H]1NC(=O)[C@@H]2CC[C@@H](C2)NC(=O)[C@H]([C@@H](C)c2c[nH]c3c(OC)cccc23)NC(=O)CN(C)C(=O)[C@H](Cc2ccc(O)cc2)NC(=O)[C@H](Cc2ccc(OCC(=O)O)cc2)NC(=O)[C@](C)(CO)NC(=O)[C@H](Cc2c[nH]c3c(Cl)cccc23)NC(=O)[C@H](Cc2ccncc2)NC(=O)[C@H](CC(N)=O)NC(=O)[C@H](CCC(=O)O)N(C)C(=O)[C@H](Cc2c[nH]c3ccccc23)NC(=O)[C@@H]2CNCCN2C(=O)[C@H](Cc2ccncc2)NC1=O [SEQ ID NO. 80] (cyclo([4Pal][Trp(7-Cl)][αMeS]Y(Carboxymethyl)Y[Sar][Trp(βS-Me,7-OMe)][X1][Nle][4Pal][Pip(4-aza)]W[NMeE]N)) | 300 pM | – | –
CCCCC[C@@H]1NC(=O)[C@@H]2CC[C@@H](C2)NC(=O)[C@H]([C@@H](C)c2c[nH]c3c(OC)cccc23)NC(=O)CN(C)C(=O)[C@H](Cc2cccc(C(N)=O)c2)NC(=O)[C@H](Cc2ccc(C(N)=O)cc2)NC(=O)[C@](C)(CO)NC(=O)[C@H](Cc2c[nH]c3c(C#N)cccc23)NC(=O)[C@H](Cc2ccc(C(=O)O)cc2)NC(=O)[C@H](CC(N)=O)NC(=O)[C@H]2C[C@@H](N(C)C)CN2C(=O)[C@H](Cc2c[nH]c3ccccc23)NC(=O)[C@@H]2CC[C@@H](O)CN2C(=O)[C@H](Cc2ccncc2)NC1=O [SEQ ID NO. 84] (cyclo([4Pal][Pip(5R-OH)]W[X9]N[Phe(4-COOH)][Trp(7-CN)][αMeS][Phe(4-CONH2)][Phe(3-CONH2)][Sar][Trp(βS-Me,7-OMe)][X1][Ahp(2)])) | 60 pM | – | –
CCCC[C@@H]1NC(=O)[C@@H]2CC[C@@H](C2)NC(=O)[C@H]([C@@H](C)c2c[nH]c3c(OC)cccc23)NC(=O)CN(C)C(=O)[C@H](Cc2ccc(CN)cc2)NC(=O)[C@H](Cc2ccc(C(N)=O)cc2)NC(=O)[C@](C)(CO)NC(=O)[C@H](Cc2c[nH]c3c(C#N)cccc23)NC(=O)[C@H](Cc2ccc(C(=O)O)cc2)NC(=O)[C@H](CC(N)=O)NC(=O)[C@H]2C[C@H](O)CN2C(=O)[C@H](Cc2c[nH]c3ccccc23)NC(=O)[C@@H]2CC[C@@H](O)CN2C(=O)[C@H](Cc2ccncc2)NC1=O [SEQ ID NO. 48] (cyclo([4Pal][Pip(5R-OH)]W[dHyp]N[Phe(4-COOH)][Trp(7-CN)][αMeS][Phe(4-CONH2)][Phe(4-CH2NH2)][Sar][Trp(βS-Me,7-OMe)][X1][Nle])) | – | 150 pM | –
CCCC[C@@H]1NC(=O)[C@@H]2CC[C@@H](C2)NC(=O)[C@H]([C@@H](C)c2c[nH]c3c(OC)cccc23)NC(=O)CN(C)C(=O)[C@H](Cc2ccc(C(=O)O)cc2)NC(=O)[C@H](Cc2ccc(C(N)=O)cc2)NC(=O)[C@](C)(CO)NC(=O)[C@H](Cc2c[nH]c3c(Cl)cccc23)NC(=O)[C@H](Cc2ccncc2)NC(=O)[C@H](CC(N)=O)NC(=O)[C@H]2C[C@H](O)CN2C(=O)[C@H](Cc2c[nH]c3ccccc23)NC(=O)[C@@H]2CNCCN2C(=O)[C@H](Cc2ccncc2)NC1=O [SEQ ID NO. 83] (cyclo([4Pal][Trp(7-Cl)][αMeS][Phe(4-CONH2)][Phe(4-COOH)][Sar][Trp(βS-Me,7-OMe)][X1][Nle][4Pal][Pip(4-aza)]W[dHyp]N)) | – | 160 pM | –
CCCC[C@@H]1NC(=O)[C@@H]2CC[C@@H](C2)NC(=O)[C@H]([C@@H](C)c2c[nH]c3c(OC)cccc23)NC(=O)CN(C)C(=O)[C@H](Cc2ccc(C(N)=O)cc2)NC(=O)[C@H](Cc2ccc(C(N)=O)cc2)NC(=O)[C@](C)(CO)NC(=O)[C@H](Cc2c[nH]c3c(C#N)cccc23)NC(=O)[C@H](Cc2ccc(C(=O)O)cc2)NC(=O)[C@H](CC(N)=O)NC(=O)[C@H]2C[C@H](O)CN2C(=O)[C@H](Cc2c[nH]c3ccccc23)NC(=O)[C@@H]2CC[C@@H](O)CN2C(=O)[C@H](Cc2ccncc2)NC1=O [SEQ ID NO. 45] (cyclo([4Pal][Pip(5R-OH)]W[dHyp]N[Phe(4-COOH)][Trp(7-CN)][αMeS][Phe(4-CONH2)][Phe(4-CONH2)][Sar][Trp(βS-Me,7-OMe)][X1][Nle])) | – | 50 pM | –
C[C@@H](c1c[nH]c2ccccc12)[C@@H]1NC(=O)CN(C)C(=O)[C@H](Cc2ccc(CN)cc2)NC(=O)[C@H](Cc2ccc(C(=O)O)cc2)NC(=O)[C@](C)(CO)NC(=O)[C@H](Cc2ccc3ccccc3c2)NC(=O)[C@H](Cc2ccc(CN)cc2)NC(=O)[C@H](CC(N)=O)NC(=O)[C@H]2CCCN2C(=O)[C@H]([C@@H](C)c2c[nH]c3ccccc23)NC(=O)[C@H](CO)NC(=O)[C@H](Cc2ccc(CN)cc2)NC(=O)[C@H](CCCNC(N)=O)NC(=O)CSC[C@@H](C(N)=O)NC1=O [SEQ ID NO. 206] ({CH2CO}-[Cit][Phe(4-CH2NH2)]S[Trp(βS-Me)][dP]N[Phe(4-CH2NH2)][2Nal][αMeS][Phe(4-COOH)][Phe(4-CH2NH2)][Sar][Trp(βS-Me)]C-NH2; thioether N-14) | – | – | IC50 (displacement of biotinylated peptide SEQ ID NO. 1 from sTNFR1, weaker binders, 10 pts titration, 4-parameter logistic model, read-out: TR-FRET, IC50): 26000 pM
